Test results reported in PMC7221826, “5-Oxo-hexahydroquinoline Derivatives and Their Tetrahydroquinoline Counterparts as Multidrug Resistance Reversal Agents” (Molecules, 2020).
Where two headings read alike, the source gives them in different places.

What was measured:
[1] = system: MCF-7; experiment: MTT cell viability assay, MCF-7; assay type: cell-based, human; conditions: read-out: IC50 (µM) in Cultured Cells MCF-7
Source text: (§1) Cell lines used for cytotoxicity assays included MCF-7 (human breast adenocarcinoma), A549 (human lung adenocarcinoma), K562 (human chronic myelogenous leukemia) and HEK-293 (human embryonic kidney) cells and were obtained from the Iranian Biological Resource Center, Tehran, Iran. MES-SA-DX5 multidrug resistant human uterine sarcoma, over-expressing P-gp and their parental non-resistant MES-SA cell lines were purchased from Sigma-Aldrich (St. Louis, MO, USA). All cells, except for HEK-293, were cultured in RPMI 1640 supplemented with 10% FBS and 100 units/mL penicillin-streptomycin at 37 °C in humidified air containing 5% CO2. HEK-293 cells were maintained in DMEM-F12 medium containing L-glutamine 2 mM supplemented with FBS and penicillin-streptomycin. MES-SA-DX5 cells were maintained in media containing 100 nM doxorubicin in order to ensure that only drug-resistant cells continue to grow.
(§2) Cytotoxicity of the test compounds were evaluated by MTT assay. In this method, reduction of MTT, a yellow tetrazolium salt to the purple formazan, by cellular dehydrogenase enzymes is determined as an index of cell viability. Cancer cells were seeded into 96-well plates (3–5 × 10^3 cells/well) and incubated for 24 h at 37 °C. Afterwards, four different concentrations of synthesized derivatives were added in triplicate and the cells were incubated at 37 °C for another 72 h, after which the media was replaced with MTT solution at a concentration of 0.5 mg/mL was added for MTT assay. After another 4h, formazan crystals were dissolved in 200 μL DMSO for 90 min and absorbance was measured at a wavelength of 570 nm with background correction at 650 nm using a microplate reader (model 680, Bio-Rad, Hercules, CA, USA) and IC50 for each compound was calculated with CurveExpert version 1.34 for Windows.

[2] = system: MES-SA-DX5; experiment: MTT cell viability assay, MES-SA-DX5; assay type: cell-based, human; conditions: multidrug resistant, P-gp overexpressing, read-out: IC50 (µM) in Cultured Cells MES-SA-DX5
Source text: as §1, §2

[3] = system: A-549; experiment: MTT cell viability assay, A-549; assay type: cell-based, human; conditions: read-out: IC50 (µM) in Cultured Cells A-549
Source text: as §1, §2

[4] = system: K562; experiment: MTT cell viability assay, K562; assay type: cell-based, human; conditions: read-out: IC50 (µM) in Cultured Cells K562
Source text: as §1, §2

[5] = system: HEK-293; experiment: MTT cell viability assay, HEK-293; assay type: cell-based, human; conditions: non-cancerous, read-out: IC50 (µM) in Cultured Cells HEK-293
Source text: as §1, §2

[6] = system: MES-SA; experiment: MTT cell viability assay, MES-SA; assay type: cell-based, human; conditions: MTT, 72 h, parental non-resistant, read-out: IC50 (µM) in Cultured Cells MES-SA
Source text: as §1, §2

[7] = system: MES-SA-DX5 cells; experiment: Cell cycle analysis by propidium iodide (PI)-RNase flow cytometry; assay type: cell-based, human; parameters: Sub G1: unit not given here; conditions: 24 h
Procedure: The analysis of cells in different phases of cell cycle and sub-G1 was performed using propidium iodide (PI)-RNase assay by flow cytometry. MES-SA-DX5 cells were seeded in 12-well plates (1 × 10^6 cells/well) and treated with different concentrations of synthesized compounds for 24 h. The cells were then collected, washed with PBS, and fixed with 70% ethanol overnight at –20 °C. After at least 24 h, fixed cells were washed with PBS and subsequently stained with a DNA staining solution containing PI 20 μg/mL and RNase 200 μg/mL at room temperature for 30 min in the dark. Twenty thousand cells of each sample were analyzed using a BD FACSCalibur flow cytometer (BD Biosciences, USA) and the amount of the cells in sub-G1, G0/G1, S, and G2/M phases were estimated using CellQuest (Becton Dickinson, San Jose, CA, USA) software.
Therefore, it could be concluded that these compounds cause cytotoxicity in drug resistant MES-SA-DX5 cells by induction of apoptosis in these cells.
Figure 3 Effect of synthesized derivatives on cell cycle alterations in MES-SA-DX5 drug resistant cells. The cells in different phases of cell cycle were monitored using propidium iodide (PI)-RNase assay by flow cytometry. MES-SA-DX5 cells were seeded in 12-well plates (1 × 10^6 cells/well) and treated with different concentrations of synthesized compounds for 24 h. The cells were then collected, washed with PBS and fixed with 70% ethanol overnight at –20 °C. After at least 24 h, fixed cells were washed with PBS and subsequently stained with a DNA staining solution containing PI 20 μg/mL and RNase 200 μg/mL at room temperature for 30 min in the dark. Twenty thousand cells of each sample were analyzed using a FACS Calibur flow cytometer (BD Biosciences, USA). Representative histograms of cells treated with synthesized compounds are shown. An increase in sub-G1 phase cells could be observed after treatment with A1, A2, B1, and B2 compounds.

Compound	IC50 ([1]; 72 h) [µM]	IC50 ([2]; 72 h) [µM]	IC50 ([3]; 72 h) [µM]	IC50 ([4]; 72 h) [µM]	IC50 ([5]; 72 h) [µM]	IC50 ([1]; Homo sapiens, MCF7, 72 h) [µM]	melting point [°C]	IC50 ([2]; Homo sapiens, MES-SA/Dx5, 72 h) [µM]	IC50 ([3]; Homo sapiens, A549, 72 h) [µM]	IC50 ([4]; Homo sapiens, K562, 72 h) [µM]	G0/G1 ([7]; 10 µM)	G2/M ([7]; 10 µM)	S ([7]; 10 µM)	Sub G1 ([7]; 10 µM)	G0/G1 ([7]; 25 µM)	G2/M ([7]; 25 µM)	S ([7]; 25 µM)	Sub G1 ([7]; 25 µM)	G0/G1 ([7]; 100 µM)	G2/M ([7]; 100 µM)	other results
4-(3,4-Dimethoxyphenyl)-2-methyl-N-(5-methylthiazol-2-yl)-5-oxo-5,6,7,8-tetrahydroquinoline-3-carboxamide [Compound B8]	> 100	> 100	> 100	67.5 ± 8																	
N.N.[Cl][Pt][Cl] [Cisplatin, cisplatin, reference compound]	26.3 ± 7.9	8.6 ± 0.5	14 ± 0.5	3.3 ± 2.3	1.1 ± 0.5																IC50 [6]: 1.2 ± 0.1 µM
CC1=C(C(=O)Nc2csc(C)n2)C(c2cccc(Cl)c2)C2=C(CCCC2=O)N1 (stereo not shown) [Compound A3, 4-(3-Chlorophenyl)-2-methyl-N-(2-methylthiazol-4-yl)-5-oxo-1,4,5,6,7,8-hexahydroquinoline-3-carboxamide]					93.7 ± 11.9	> 100	253	78 ± 4	> 100	56.4 ± 7	50.35 ± 4.5	23.25 ± 1.6	18.23 ± 2.6	0.51 ± 0.1	56.18 ± 1.2	23.08 ± 1.0	19.70 ± 2.0	0.97 ± 0.2	53.64 ± 1.4	29.46 ± 1.8	S ([7]; 100 µM): 13.31 ± 1.0; IC50 ([5]; Homo sapiens, HEK293, 72 h): > 50 µM; IC50 ([6]; Homo sapiens, MES-SA): > 100 µM
COc1cc(C2C(C(=O)Nc3csc(C)n3)=C(C)NC3=C2C(=O)CCC3)cc(OC)c1OC (stereo not shown) [Compound A4, 2-Methyl-N-(2-methylthiazol-4-yl)-5-oxo-4-(3,4,5-trimethoxyphenyl)-1,4,5,6,7,8-hexahydroquinoline-3-carboxamide]						> 100	160	> 100	> 100	> 100											
CC1=C(C(=O)Nc2csc(C)n2)C(c2ccc(Cl)cc2)C2=C(CCCC2=O)N1 (stereo not shown) [Compound A5, 4-(4-Chlorophenyl)-2-methyl-N-(2-methylthiazol-4-yl)-5-oxo-1,4,5,6,7,8-hexahydroquinoline-3-carboxamide]					71.1 ± 10.1	72.9 ± 12.3	253	40.3 ± 3	87.4 ± 1.5	31.5 ± 3.3	56.07 ± 0.3	24.20 ± 1.2	19.03 ± 0.9	0.65 ± 0.2	58.03 ± 0.7	22.33 ± 0.5	18.90 ± 0.9	0.70 ± 0.3	48.92 ± 1.4	29.32 ± 1.2	S ([7]; 100 µM): 18.58 ± 0.6; IC50 ([5]; Homo sapiens, HEK293, 72 h): > 50 µM; IC50 ([6]; Homo sapiens, MES-SA): 69.5 ± 12.5 µM
CCOc1cc(C2C(C(=O)Nc3csc(C)n3)=C(C)NC3=C2C(=O)CCC3)ccc1O (stereo not shown) [Compound A6, 4-(3-Ethoxy-4-hydroxyphenyl)-2-methyl-N-(2-methylthiazol-4-yl)-5-oxo-1,4,5,6,7,8-hexahydroquinoline-3-carboxamide]						> 100	251	> 100	> 100	> 100											
